Source: paper PMC5727211, “Development of Erasin: a chromone-based STAT3 inhibitor which induces apoptosis in Erlotinib-resistant lung cancer cells” (Scientific Reports, 2017)

How the values were obtained:
[1] = target: T1, STAT1 SH2 domain (Homo sapiens, UniProt P42224); assay: FP-based competitive binding assay, STAT1 SH2 domain; conditions: mean ± s.d., three experiments
T1 sequence (P42224 1-750): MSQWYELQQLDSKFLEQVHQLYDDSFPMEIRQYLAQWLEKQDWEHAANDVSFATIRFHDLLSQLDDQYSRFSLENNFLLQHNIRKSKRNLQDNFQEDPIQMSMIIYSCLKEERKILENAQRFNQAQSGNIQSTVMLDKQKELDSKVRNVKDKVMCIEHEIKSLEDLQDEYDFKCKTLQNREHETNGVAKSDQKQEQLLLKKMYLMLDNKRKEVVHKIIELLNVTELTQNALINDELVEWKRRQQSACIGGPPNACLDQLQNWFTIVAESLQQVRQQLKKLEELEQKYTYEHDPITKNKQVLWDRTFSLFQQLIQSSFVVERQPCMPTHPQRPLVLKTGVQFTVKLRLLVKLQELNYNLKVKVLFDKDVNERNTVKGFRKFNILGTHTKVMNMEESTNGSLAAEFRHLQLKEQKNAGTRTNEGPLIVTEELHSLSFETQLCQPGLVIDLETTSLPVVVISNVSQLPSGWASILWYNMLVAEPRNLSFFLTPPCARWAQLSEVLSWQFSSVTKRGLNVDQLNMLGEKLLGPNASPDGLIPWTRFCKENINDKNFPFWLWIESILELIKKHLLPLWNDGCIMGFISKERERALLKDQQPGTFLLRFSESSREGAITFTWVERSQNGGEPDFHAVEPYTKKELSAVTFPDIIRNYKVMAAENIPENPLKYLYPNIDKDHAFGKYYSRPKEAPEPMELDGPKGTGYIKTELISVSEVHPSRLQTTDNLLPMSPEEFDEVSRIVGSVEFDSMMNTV
Protocol: (§1) The STAT family display a high degree of homology. […] Vilsmeyer-Haack formylation of 2-hydroxy acetophenones led to 3-formyl chromones, which were subsequently converted to the acyl hydrazones by reaction with hydrazides (Fig. 1). The target molecules were tested for their abilities to inhibit binding of fluorophore-labeled peptides to the SH2 domains of STAT1[24], STAT3[25], and STAT5b[26] in assays based on fluorescence polarization (FP). The more distantly related SH2 domain of the tyrosine kinase Lck served as additional specificity control[27],[28].
(§2) Assays were performed essentially as described. In brief, protein was incubated with the test compounds for 1 h at room temperature at the following protein concentrations: STAT1: 400 nM, STAT3: 210 nM, STAT5b: 300 nM, Lck SH2: 35 nM. Subsequently, the corresponding fluorophore-labeled peptide was added: STAT1: (5-carboxyfluorescein)-GpYDKPHVL-OH, derived from the interferon-γ receptor[24]; STAT3: (5-carboxyfluorescein)-GpYLPQTV-NH2, derived from the gp130 subunit of the IL-6 receptor[25]; STAT5b: (5-carboxyfluorescein)-GpYLVLDKW-OH, derived from the erythropoietin receptor[26]; Lck SH2: (5-carboxyfluorescein)-GpYEEIP-OH, derived from the middle-T antigen. After a further hour of incubation, fluorescence polarization was measured in a plate reader (Tecan Infinite F500). Apparent IC50 data shown in Tables 1, 2, and S1 and the inhibition curves shown in Fig. 2a correspond to this time point. The majority of the pipetting work was carried out using a Biomek FXp workstation (Beckman-Coulter). Buffer composition: 10 mM Tris pH 8.0, 50 mM NaCl, 1 mM EDTA, 1 mM dithiothreitol (DTT), 0.1% Nonidet P-40, and 2% DMSO.

[2] = target: T2, Lck SH2 (Homo sapiens, UniProt P06239); assay: FP-based competitive binding assay, Lck SH2 domain; conditions: at 80 µM
T2 construct: STAT1: 400 nM, STAT3: 210 nM, STAT5b: 300 nM, Lck SH2: 35 nM
T2 sequence (P06239 127-224 limits assumed): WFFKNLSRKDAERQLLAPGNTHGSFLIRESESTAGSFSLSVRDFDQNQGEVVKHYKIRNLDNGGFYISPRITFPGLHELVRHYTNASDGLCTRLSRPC
Protocol: as §1, §2
Supplementary Figures and Table
No Structure app. IC50 [µM] or
Supplementary Table S1: Activities of test compounds in fluorescence polarization assays against the
SH2 domains of Lck. See the Supporting Methods for details. […]

[3] = tested on: MDA-MB-231 cells; assay: Apoptosis assay (Annexin V/7-AAD flow cytometry), MDA-MB-231 cells; format: cell-based, human; conditions: 24 h
Protocol: MDA-MB-453 cells (3 × 10^5 cells per well), MDA-MB-231 cells (2 × 10^5 cells per well), parental HCC-827 or Erlotinib-resistant HCC-827 cells (both 2.5 × 10^5 cells per well) were seeded in 24-well tissue culture plates (Corning #3524) and treated with test compound or DMSO (final DMSO concentration: 0.2%) for 24 h. Afterwards, the cell culture supernatant from each well was collected. Cells were washed twice with warm PBS and incubated with Accutase (BD Bioscience #561527) at 37 °C for 10 min. The supernatants were then returned to each well to neutralize the Accutase solution and the cells were centrifuged at 3000 rpm, at 4 °C for 5 min. The cell pellets were washed twice with cold PBS and centrifuged again. PE Annexin V Apoptosis Detection Kit I (BD Bioscience, 559763) was used for cell staining. Cells were resuspended in 1 x binding buffer and incubated with PE Annexin V and 7-AAD at 4 °C for 30 min. Apoptosis was measured using an LSR II flow cytometer (BD Bioscience). Experiments were carried out in at least triplicate.

[4] = target: T3, STAT5b SH2 domain (Homo sapiens, UniProt P51692); assay: FP-based competitive binding assay, STAT5b SH2 domain; conditions: at 80 µM, mean ± s.d., three experiments
T3 sequence (P51692 1-787): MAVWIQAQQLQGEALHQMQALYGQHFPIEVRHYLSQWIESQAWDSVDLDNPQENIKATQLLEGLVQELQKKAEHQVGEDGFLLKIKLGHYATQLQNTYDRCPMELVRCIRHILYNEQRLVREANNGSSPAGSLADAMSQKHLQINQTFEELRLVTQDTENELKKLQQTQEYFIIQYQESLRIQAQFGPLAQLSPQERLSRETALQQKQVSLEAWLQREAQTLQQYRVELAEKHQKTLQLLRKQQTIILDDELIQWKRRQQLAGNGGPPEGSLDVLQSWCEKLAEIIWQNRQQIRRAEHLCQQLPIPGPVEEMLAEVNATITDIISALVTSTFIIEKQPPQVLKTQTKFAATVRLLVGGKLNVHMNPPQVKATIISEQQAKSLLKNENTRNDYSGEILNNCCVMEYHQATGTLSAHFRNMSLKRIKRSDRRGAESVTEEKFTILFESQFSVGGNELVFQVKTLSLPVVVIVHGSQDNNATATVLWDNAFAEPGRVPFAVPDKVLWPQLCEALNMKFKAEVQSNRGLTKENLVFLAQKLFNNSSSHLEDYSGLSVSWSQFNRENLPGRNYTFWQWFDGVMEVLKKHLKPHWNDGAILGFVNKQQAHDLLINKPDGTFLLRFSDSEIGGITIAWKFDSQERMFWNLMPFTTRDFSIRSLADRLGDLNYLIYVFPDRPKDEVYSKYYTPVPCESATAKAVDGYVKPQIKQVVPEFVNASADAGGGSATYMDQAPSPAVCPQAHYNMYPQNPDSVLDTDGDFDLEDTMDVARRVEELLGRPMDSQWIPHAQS
Protocol: as §1, §2

inhibition at 80 µM ([1]; at 80 µM) [%] | Lck inhibition [2] | STAT5b inhibition [4] | IC50 ([1]; 1 h with protein, then 1 h with peptide, read-out: STAT1 app. IC50) [µM] | inhibition at 80 µM [4] [%] | Structure (SMILES) | increase in rate of apoptosis relative to DMSO control [3]
36 ± 4 | no inhibition | no inhibition at 80 µM |  |  | CCC(C)(C)c1ccc2occ(/C=N/NC(=O)c3cccnc3)c(=O)c2c1 [Compound 9] | did not significantly increase apoptosis
 | no inhibition |  | 24 ± 4 | 32 ± 2 | CC(C)(C)c1ccc2occ(/C=N/NC(=O)c3cccnc3)c(=O)c2c1 [Compound 8] | up to three-fold increase
